Assay [1] concerns the target T1, Endothelin-1 receptor (Homo sapiens, UniProt P25101).
T1 sequence (P25101 whole entry): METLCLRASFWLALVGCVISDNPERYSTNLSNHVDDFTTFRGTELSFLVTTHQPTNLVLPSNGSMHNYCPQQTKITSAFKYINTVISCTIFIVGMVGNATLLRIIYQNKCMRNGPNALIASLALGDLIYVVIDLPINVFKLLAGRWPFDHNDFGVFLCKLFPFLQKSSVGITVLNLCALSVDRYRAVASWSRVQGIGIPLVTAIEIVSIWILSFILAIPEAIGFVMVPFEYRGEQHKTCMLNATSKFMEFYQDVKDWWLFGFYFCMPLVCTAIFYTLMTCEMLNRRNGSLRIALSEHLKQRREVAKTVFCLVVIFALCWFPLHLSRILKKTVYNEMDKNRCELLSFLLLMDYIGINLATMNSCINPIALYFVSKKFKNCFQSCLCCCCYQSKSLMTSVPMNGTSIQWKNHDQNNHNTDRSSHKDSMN
The experiment in a line: Antagonist activity against human ETA receptor using CHO cells. Type of assay: functional, cell-based.

Assay [2] deals with T2, Endothelin receptor type B (Homo sapiens, UniProt P24530).
T2 sequence (P24530 whole entry): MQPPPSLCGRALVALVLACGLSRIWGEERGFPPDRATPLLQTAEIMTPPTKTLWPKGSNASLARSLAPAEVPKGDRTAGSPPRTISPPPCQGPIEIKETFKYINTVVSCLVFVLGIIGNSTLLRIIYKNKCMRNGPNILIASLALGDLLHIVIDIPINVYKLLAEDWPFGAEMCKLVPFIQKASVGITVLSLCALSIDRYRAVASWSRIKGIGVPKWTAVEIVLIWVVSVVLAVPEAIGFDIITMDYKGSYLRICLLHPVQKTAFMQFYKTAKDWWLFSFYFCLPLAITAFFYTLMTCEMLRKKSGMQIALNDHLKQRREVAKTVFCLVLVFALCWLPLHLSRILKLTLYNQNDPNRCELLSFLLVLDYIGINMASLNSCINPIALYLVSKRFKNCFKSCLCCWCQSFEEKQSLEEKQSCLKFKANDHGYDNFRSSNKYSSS
Description: Antagonist activity against human Endothelin B receptor expressed in CHO cells. The class given is functional, cell-based.

This is an account of results in ChEMBL document CHEMBL1136386, “Solid-phase synthesis of endothelin receptor antagonists” (Bioorg Med Chem Lett, 2003).

What is called Ki is the dissociation constant of the complex between target and ligand, obtained from inhibition or displacement. A low value points to a stronger hold on the target.

For the molecule `CCOc1ccc(-c2cc(C)nc(OC(C(=O)O)C(C)(c3ccccc3)c3ccccc3)n2)cc1` (configuration not stated), the Ki in assay [1] was 2 nM; in assay [2], 344 nM.
